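Briefly, cells in 96-well plates were exposed to five compound concentrations for 48 h, and endpoints were estimated by linear interpolation. GI50 is the concentration that inhibits growth by half.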 Calls of active or inactive are those of the source. No stated cut-off is given here; in the data, active = GI50 up to about 1.1 µM and inactive = higher.
Assays:
Assay in all cases: NCI tumour cell line growth inhibition, 48 h
M14 = test system: M14
SF-539 = test system: SF-539
UO-31 = test system: UO-31
HCT-15 = test system: HCT-15
MCF7 = test system: MCF7
HOP-92 = test system: HOP-92
SR = test system: SR
SK-MEL-2 = test system: SK-MEL-2
HT-29 = test system: HT-29
UACC-62 = test system: UACC-62
MDA-MB-435 = test system: MDA-MB-435
786-0 = test system: 786-0
DU-145 = test system: DU-145
A498 = test system: A498
NCI-H23 = test system: NCI-H23
RPMI-8226 = test system: RPMI-8226
SNB-19 = test system: SNB-19
HOP-62 = test system: HOP-62
COLO 205 = test system: COLO 205
SN12C = test system: SN12C

Compound	GI50 (M14)	GI50 (SF-539)	GI50 (UO-31)	GI50 (HCT-15) [µM]	GI50 (MCF7)	GI50 (HOP-92)	GI50 (SR)	GI50 (SK-MEL-2)	GI50 (HT-29)	GI50 (UACC-62)	GI50 (MDA-MB-435)	GI50 (786-0)	GI50 (DU-145)	GI50 (A498)	GI50 (NCI-H23)	GI50 (RPMI-8226)	GI50 (SNB-19)	GI50 (HOP-62)	GI50 (COLO 205)	GI50 (SN12C)
COc1cc(C=O)cc(/C=N/c2ccccn2)c1O	6.87 µM (inactive)	3.01 µM (inactive)	3.34 µM (inactive)	29	52.1 µM (inactive)	2.72 µM (inactive)	2.18 µM (inactive)	2.57 µM (inactive)	11.5 µM (inactive)	30 µM (inactive)	9.29 µM (inactive)	7.36 µM (inactive)	> 100 µM (inactive)	9.64 µM (inactive)	> 100 µM (inactive)	4.85 µM (inactive)	17.4 µM (inactive)	16 µM (inactive)	7.08 µM (inactive)	12.6 µM (inactive)
COc1ccc(NC(=O)N(C)CC2(O)CCC(C(C)(C)C)CC2)cc1 (stereo not given)	> 100 µM (inactive)	> 100 µM (inactive)	30.6 µM (inactive)	61.7	19.4 µM (inactive)	3.66 µM (inactive)	> 100 µM (inactive)	63.8 µM (inactive)	32.5 µM (inactive)	35.5 µM (inactive)	57.1 µM (inactive)	> 100 µM (inactive)	> 100 µM (inactive)	81.3 µM (inactive)	99.3 µM (inactive)	21 µM (inactive)	> 100 µM (inactive)	> 100 µM (inactive)	36.1 µM (inactive)	> 100 µM (inactive)
Cn1cc[n+](-c2cc(=O)n(C)c(=O)[n-]2)c1	> 100 µM (inactive)	> 100 µM (inactive)	44.3 µM (inactive)	> 100	93.5 µM (inactive)	> 100 µM (inactive)	27.9 µM (inactive)	> 100 µM (inactive)	> 100 µM (inactive)	> 100 µM (inactive)	> 100 µM (inactive)	> 100 µM (inactive)	> 100 µM (inactive)	> 100 µM (inactive)	> 100 µM (inactive)	96.8 µM (inactive)	> 100 µM (inactive)	> 100 µM (inactive)	96.4 µM (inactive)	> 100 µM (inactive)
COC12COC(=O)C1C(c1ccc3c(c1)OCO3)c1cc3c(cc1O2)OCO3 (stereo not given)	13 µM (inactive)	10.7 µM (inactive)	28.4 µM (inactive)	7.08	14.3 µM (inactive)	37.8 µM (inactive)	5.38 µM (inactive)	17.6 µM (inactive)	6.44 µM (inactive)	15.8 µM (inactive)	2.72 µM (inactive)	25.1 µM (inactive)	25 µM (inactive)	29.2 µM (inactive)	35.6 µM (inactive)	14.4 µM (inactive)	54.1 µM (inactive)	16 µM (inactive)	9.42 µM (inactive)	40 µM (inactive)
O=C(/C=C/c1ccc(OCc2cccc(Cl)c2)cc1)NO	21 µM (inactive)	17.2 µM (inactive)	4.78 µM (inactive)	5.05	39.5 µM (inactive)	14.1 µM (inactive)	3.55 µM (inactive)	18 µM (inactive)	13.6 µM (inactive)	13.1 µM (inactive)	18.5 µM (inactive)	10.7 µM (inactive)	15.3 µM (inactive)	12.1 µM (inactive)	11.2 µM (inactive)	7.48 µM (inactive)	18 µM (inactive)	18.2 µM (inactive)	14 µM (inactive)	20.6 µM (inactive)
Cc1cccc(/C=N\NC(=S)N2CCCCC2)n1	< 0.01 µM (active)	0.156 µM (active)	0.216 µM (active)	0.0371	< 0.01 µM (active)	0.474 µM (active)	0.019 µM (active)	0.612 µM (active)	< 0.01 µM (active)	0.383 µM (active)	0.56 µM (active)	0.027 µM (active)	0.362 µM (active)	0.0241 µM (active)	0.0689 µM (active)	0.0128 µM (active)	0.665 µM (active)	0.0776 µM (active)	< 0.01 µM (active)	0.181 µM (active)
CC(C)(C)N1NC1C1NN1C(C)(C)C (stereo not given)	> 100 µM (inactive)	> 100 µM (inactive)	> 100 µM (inactive)	> 100	> 100 µM (inactive)	> 100 µM (inactive)	> 100 µM (inactive)	> 100 µM (inactive)	> 100 µM (inactive)	> 100 µM (inactive)	> 100 µM (inactive)	> 100 µM (inactive)	> 100 µM (inactive)	> 100 µM (inactive)	> 100 µM (inactive)	> 100 µM (inactive)	> 100 µM (inactive)	> 100 µM (inactive)	> 100 µM (inactive)	> 100 µM (inactive)
CC(C)(C)[Si](C)(C)OCC1OC(n2cnc3c(NC(=O)c4ccccc4)ncnc32)CC1O (stereo not given)	19.9 µM (inactive)	23.3 µM (inactive)	1.47 µM (inactive)	51.1	44.4 µM (inactive)	23.5 µM (inactive)	25.1 µM (inactive)	27.2 µM (inactive)	36.5 µM (inactive)	18.7 µM (inactive)	22.1 µM (inactive)	21.4 µM (inactive)	64 µM (inactive)	32.9 µM (inactive)	48.9 µM (inactive)	21.8 µM (inactive)	28.6 µM (inactive)	19 µM (inactive)	18.3 µM (inactive)	33.4 µM (inactive)
CC(=O)O[C@H]1CC[C@@]2(C)C(=CC[C@@H]3[C@@H]2CC[C@](C)(c2nnc(C)o2)[C@H]3CC#N)C1	> 100 µM (inactive)	> 100 µM (inactive)	> 100 µM (inactive)	> 100	> 100 µM (inactive)	> 100 µM (inactive)	> 100 µM (inactive)	> 100 µM (inactive)	> 100 µM (inactive)	> 100 µM (inactive)	> 100 µM (inactive)	> 100 µM (inactive)	> 100 µM (inactive)	> 100 µM (inactive)	> 100 µM (inactive)	> 100 µM (inactive)	> 100 µM (inactive)	> 100 µM (inactive)	> 100 µM (inactive)	> 100 µM (inactive)

From ChEMBL document CHEMBL1201862, “PubChem BioAssay data set” (2004)
